Measurements: patent publication US20240148821A1, “PHARMACEUTICAL USE OF CYCLIC PEPTIDE COMPOUND” (CHUGAI SEIYAKU KABUSHIKI KAISHA, priority 2021, published 2024)
Numbered stars: 1 amine (or outer) side, 2 acyl side, 3 side chain; on linkers, the order of the positions; unused ones are H or OH. Bridge positions count the residues as written; N and C are the ends. Square brackets hold non-standard residues; d marks the D form. Peptide text beside a SMILES is read from it. * marks the point of attachment. hPhe(3,5-F2-4-CF3) = N[C@@H](CCc1cc(F)c(C(F)(F)F)c(F)c1)C(=O)O; hPhe(3-Cl-4-CF3) = N[C@@H](CCc1ccc(C(F)(F)F)c(Cl)c1)C(=O)O; hPhe(3-F,4-CF3) = N[C@@H](CCc1ccc(C(F)(F)F)c(F)c1)C(=O)O; NMePhe(4-Me) = CN[C@@H](Cc1ccc(C)cc1)C(=O)O; NMedβ3hAla = C[C@H](CC(=O)[*:2])N(C)[*:1]; NMeGly(cPent) = CN[C@H](C(=O)O)C1CCCC1; NMeGly(cBu) = CN[C@H](C(=O)O)C1CCC1; NMeCha = CN[C@@H](CC1CCCCC1)C(=O)O; Hyp = O=C(O)[C@@H]1C[C@@H](O)CN1; NMeI = CC[C@H](C)[C@H](NC)C(=O)O; NMeD = CN[C@@H](CC(=O)O)C(=O)O; NMeL = CN[C@@H](CC(C)C)C(=O)O; NMeC = CN[C@@H](CS)C(=O)O; NMeS = CN[C@@H](CO)C(=O)O; NPhGly = O=C(O)CNc1ccccc1; NMeA = CN[C@@H](C)C(=O)O; NMeAib = CNC(C)(C)C(=O)O; Piperidide = C1CCN(*)CC1; Ac5c = NC1(C(=O)O)CCCC1; Aze = O=C(O)[C@@H]1CCN1; Sar = CNCC(=O)O; Propyl = CCC*

Key:
[1] = target: protein-protein interaction between Kras and SOS1 (biotin-tagged human Kras loaded with GDP, His-tagged human SOS1) (Homo sapiens (Human), UniProt P01116, G12D); assay: Protein-protein interaction inhibition between Kras and SOS1 (KrasG12D-SOS PPI) using AlphaScreen; type: biochemical; details: AlphaScreen; biotin-tagged human Kras loaded with GDP, His-tagged human SOS1; read-out: KRAS G12D-SOS PPI IC50;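 further: kras produced in E. coli, Ni-coupled donor beads and streptavidin acceptor beads, excitation 680 nm with emission detected at 520–620 nm via singlet oxygen transfer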
[2] = test system: Human pancreatic cancer cell line AsPC-1 (G12D mutation Kras); assay: AsPC-1 cell growth inhibition (AsPC-1 CGI); type: cell-based; details: read-out: AsPC-1 cell growth inhibition, 50% growth inhibitory concentration (IC50 value); 96 hours, CellTiter-Glo, values classified in ranges
Experimental: Test compounds were serially dilated with dimethyl sulfoxide, and 200 nL was then dispensed to a U-bottom 96-well plate using Labcyte Echo. […] The cell suspension was dispensed to a. plate containing a test compound at 100 μL per well and incubated at 37° C. in a 5% carbon dioxide gas incubator. 96 hours later, 80 μL of CellTiter-Glo (Promega) was added to each well and fluorescence was measured.

| Compound | IC50 [1] [nM] | IC50 [2] [nM] |
| --- | --- | --- |
| CC[C@H](C)[C@@H]1NC(=O)[C@H](C)N(C)C(=O)C[C@@H](C)N(C)C(=O)[C@H](C2CCC2)N(C)C(=O)C2(CCCC2)NC(=O)CN(c2ccccc2)C(=O)[C@H](CCc2ccc(C(F)(F)F)c(Cl)c2)NC(=O)CN(C)C(=O)[C@H](CC2CCCCC2)N(C)C(=O)CN(C)C(=O)CN(C)C1=O [Compound 2143] (cyclo([Ac5c][NMeGly(cBu)][NMedβ3hAla][NMeA]I[Sar][Sar][NMeCha][Sar][hPhe(3-Cl-4-CF3)][NPhGly])) | 41 | > 500 |
| CC[C@H](C)[C@@H]1NC(=O)[C@H](C)N(C)C(=O)C[C@@H](C)N(C)C(=O)[C@H](C2CCC2)N(C)C(=O)C(C)(C)N(C)C(=O)CN(c2ccccc2)C(=O)[C@H](CCc2ccc(C(F)(F)F)c(Cl)c2)NC(=O)CN(C)C(=O)[C@H](CC2CCCCC2)N(C)C(=O)CN(C)C(=O)CN(C)C1=O [Compound 2145] (cyclo(I[Sar][Sar][NMeCha][Sar][hPhe(3-Cl-4-CF3)][NPhGly][NMeAib][NMeGly(cBu)][NMedβ3hAla][NMeA])) | 22 | > 500 |
| CC[C@H](C)[C@@H]1NC(=O)[C@H](C)N(C)C(=O)C[C@@H](C(=O)N2CCCCC2)N(C)C(=O)[C@H](C2CCC2)N(C)C(=O)C(C)(C)N(C)C(=O)CN(c2ccccc2)C(=O)[C@H](CCc2ccc(C(F)(F)F)c(Cl)c2)NC(=O)CN(C)C(=O)[C@H](CC2CCCCC2)N(C)C(=O)CN(C)C(=O)CN(C)C1=O [Compound 2150] ([NMeA]I[Sar][Sar][NMeCha][Sar][hPhe(3-Cl-4-CF3)][NPhGly][NMeAib][NMeGly(cBu)][NMeD]-Piperidide; lactam N-11) | 5.7 | > 500 |
| CC[C@H](C)[C@@H]1NC(=O)[C@H](C)N(C)C(=O)C[C@@H](C(=O)N2CCCCC2)N(C)C(=O)[C@H](C2CCC2)N(C)C(=O)C2(CCCC2)NC(=O)CN(c2ccccc2)C(=O)[C@H](CCc2ccc(C(F)(F)F)c(Cl)c2)NC(=O)CN(C)C(=O)[C@H](CC2CCCCC2)N(C)C(=O)CN(C)C(=O)CN(C)C1=O [Compound 2151] ([NMeA]I[Sar][Sar][NMeCha][Sar][hPhe(3-Cl-4-CF3)][NPhGly][Ac5c][NMeGly(cBu)][NMeD]-Piperidide; lactam N-11) | 2.5 | > 500 |
| CC[C@H](C)[C@@H]1NC(=O)CSC[C@@H](C(=O)N(C)C)N(C)C(=O)[C@H](C2CCCC2)N(C)C(=O)C2(CCCC2)NC(=O)[C@@H]2CCCN2C(=O)[C@H](CCc2ccc(C(F)(F)F)c(Cl)c2)NC(=O)CN(C)C(=O)[C@H](CC2CCCCC2)N(C)C(=O)CN(C)C(=O)CN(C)C1=O [Compound 2172, (3S,9S,18S,24R,27S,33S)-18-[(2S)-butan-2-yl]-3-[2-[3-chloro-4-(trifluoromethyl)phenyl]ethyl]-9-(cyclohexylmethyl)-27-cyclopentyl-N,N,7,10,13,16,25,28-octamethyl-2,5,8,11,14,17,20,26,29,32-decaoxospiro[22-thia-1,4,7,10,13,16,19,25,28,31-decazabicyclo[31.3.0]hexatriacontane-30,1′-cyclopentane]-24-carboxamide] ({CH2CO}-I[Sar][Sar][NMeCha][Sar][hPhe(3-Cl-4-CF3)]P[Ac5c][NMeGly(cPent)][NMeC]-NMe2; thioether N-10) | 14 | > 500 |

The next lines start with the values.

| IC50 [1] [nM] | IC50 [2] [nM] | Compound |
| --- | --- | --- |
| 6 | > 500 | CC[C@H](C)[C@@H]1NC(=O)CSC[C@@H](C(=O)N(C)C)N(C)C(=O)[C@H]([C@@H](C)CC)N(C)C(=O)C2(CCCC2)NC(=O)[C@@H]2CCCN2C(=O)[C@H](CCc2ccc(C(F)(F)F)c(Cl)c2)NC(=O)CN(C)C(=O)[C@H](Cc2ccc(C)cc2)N(C)C(=O)CN(C)C(=O)CN(C)C1=O [Compound 2173, (3S,9S,18S,24R,27S,33S)-18,27-bis[(2S)-butan-2-yl]-3-[2-[3-chloro-4-(trifluoromethyl)phenyl]ethyl]—N,N,7,10,13,16,25,28-octamethyl-9-[(4-methylphenyl)methyl]-2,5,8,11,14,17,20,26.,29,32-decaoxospiro[22-thia-1,4,7,10,13,16,19,25,28,31-decazabicyclo[31.3.0]hexatriacontane-30,1-cyclopentane]-24-carboxamide] ({CH2CO}-I[Sar][Sar][NMePhe(4-Me)][Sar][hPhe(3-Cl-4-CF3)]P[Ac5c][NMeI][NMeC]-NMe2; thioether N-10) |
| 870 | > 500 | CCCOC[C@H]1C(=O)N(C)CC(=O)N[C@@H](CCc2ccc(C(F)(F)F)c(F)c2)C(=O)N2CCC[C@H]2C(=O)NC2(CCCC2)C(=O)N(C)[C@@H](C2CCCC2)C(=O)N(C)[C@H](C(=O)N(C)C)CSCC(=O)N(C)[C@@H](CC(C)C)C(=O)N[C@@H]([C@@H](C)CC)C(=O)N(C)[C@@H](C)C(=O)N2CC[C@H]2C(=O)N1C [Compound 2174, (3S,9S,12S,17S,20S,23S,29R,32S,38S)-20-[(2S)-butan-2-yl]-32-cyclopentyl-3-[2-[3-fluoro-4-(trifluoromethyl)phenyl]ethyl]-N,N,7,10,17,18,24,30,33-nonamethyl-23-(2-methylpropyl)-2,5,8,11,16,19,22,25,31,34,37-undecaoxo-9-(propoxymethyl)spiro[27-thia-1,4,7,10,15,18,21,24,30,33,36-undecazatricyclo[36.3.0.012,15]hentetracontane-35,1′-cyclopentane)-29-carboxamide] ({CH2CO}-[NMeL]I[NMeA][Aze][NMeS](Propyl)[Sar][hPhe(3-F,4-CF3)]P[Ac5c][NMeGly(cPent)][NMeC]-NMe2; thioether N-11) |
| 180 | > 500 | CC[C@H](C)[C@@H]1NC(=O)[C@H](CC(C)C)N(C)C(=O)CSC[C@@H](C(=O)N(C)C)N(C)C(=O)[C@H](C2CCCC2)N(C)C(=O)C2(CCCC2)NC(=O)[C@@H]2CCCN2C(=O)[C@H](CCc2ccc(C(F)(F)F)c(Cl)c2)NC(=O)CN(C)C(=O)[C@H](CC2CCCCC2)N(C)C(=O)CN(C)C(=O)CN(C)C1=O [Compound 2175] ({CH2CO}-[NMeL]I[Sar][Sar][NMeCha][Sar][hPhe(3-Cl-4-CF3)]P[Ac5c][NMeGly(cPent)][NMeC]-NMe2; thioether N-11) |
| 120 | > 500 | CCO[C@@H]1C[C@H]2C(=O)NC3(CCCC3)C(=O)N(C)[C@@H](C3CCCC3)C(=O)N(C)[C@H](C(=O)N(C)C)CSCC(=O)N(C)[C@@H](CC(C)C)C(=O)N[C@@H]([C@@H](C)CC)C(=O)N(C)[C@@H](C)C(=O)N3CC[C@H]3C(=O)N(C)[C@@H](CC3CCCCC3)C(=O)N(C)CC(=O)N[C@@H](CCc3cc(F)c(C(F)(F)F)c(F)c3)C(=O)N2C1 [Compound 2176, (3S,9S,12S,17S,20S,23S,29R,32S,38S,40R)-20-[(2S)-butan-2-yl]-9-(cyclohexylmethyl)-32-cyclopentyl-3-[2-[3,5-difluoro-4-(trifluoromethyl)phenyl]ethyl]-40-ethoxy-N,N,7,10,17,18,24,30,33-nonamethyl-23(2-methylpropyl)-2,5,8,11,16,19,22,25,31,34,37-undecaoxospiro[27-thia-1,4,7,10,15,18,21,24,30,33,36-undecazatricyclo[36.3.0.012,15]hentetracontane-35,1′-cyclopentane]-29-carboxamide] ({CH2CO}-[NMeL]I[NMeA][Aze][NMeCha][Sar][hPhe(3,5-F2-4-CF3)][Hyp](Et)[Ac5c][NMeGly(cPent)][NMeC]-NMe2; thioether N-11) |
| 250 | > 500 | CC[C@H](C)[C@@H]1NC(=O)[C@H](CC(C)C)N(C)C(=O)CSC[C@@H](C(=O)N(C)C)N(C)C(=O)[C@H](C2CCCC2)N(C)C(=O)C2(CCCC2)NC(=O)[C@@H]2CCCN2C(=O)[C@H](CCc2ccc(C(F)(F)F)c(Cl)c2)NC(=O)CN(C)C(=O)[C@H](Cc2ccc(C)cc2)N(C)C(=O)[C@@H]2CCN2C(=O)[C@H](C)N(C)C1=O [Compound 2177] ({CH2CO}-[NMeL]I[NMeA][Aze][NMePhe(4-Me)][Sar][hPhe(3-Cl-4-CF3)]P[Ac5c][NMeGly(cPent)][NMeC]-NMe2; thioether N-11) |
| 160 | > 500 | CC[C@H](C)[C@@H]1NC(=O)[C@H](CC(C)C)N(C)C(=O)CSC[C@@H](C(=O)N(C)C)N(C)C(=O)[C@H]([C@@H](C)CC)N(C)C(=O)C2(CCCC2)NC(=O)[C@@H]2CCCN2C(=O)[C@H](CCc2ccc(C(F)(F)F)c(Cl)c2)NC(=O)CN(C)C(=O)[C@H](Cc2ccc(C)cc2)N(C)C(=O)CN(C)C(=O)CN(C)C1=O [Compound 2178] ({CH2CO}-[NMeL]I[Sar][Sar][NMePhe(4-Me)][Sar][hPhe(3-Cl-4-CF3)]P[Ac5c][NMeI][NMeC]-NMe2; thioether N-11) |
| 540 | > 500 | CC[C@H](C)[C@@H]1NC(=O)[C@H](CC(C)C)N(C)C(=O)CSC[C@@H](C(=O)N(C)C)N(C)C(=O)[C@H](C2CCCC2)N(C)C(=O)C2(CCCC2)NC(=O)[C@@H]2CCCN2C(=O)[C@H](CCc2ccc(C(F)(F)F)c(F)c2)NC(=O)CN(C)C(=O)[C@H](C2CCCC2)N(C)C(=O)[C@@H]2CCN2C(=O)[C@H](C)N(C)C1=O [Compound 2179] ({CH2CO}-[NMeL]I[NMeA][Aze][NMeGly(cPent)][Sar][hPhe(3-F,4-CF3)]P[Ac5c][NMeGly(cPent)][NMeC]-NMe2; thioether N-11) |
